20 molecules from ChEMBL document CHEMBL5137027, “Discovery of quinazoline derivatives CZw-124 as a pan-TRK inhibitor with potent anticancer effects in vitro and in vivo” (Eur J Med Chem, 2022) can be followed below.

Data set [1] concerns KM12. Briefly: Antiproliferative activity against human KM12 cells assessed as inhibition of cell growth incubated for 72 hrs by CCK8 assay. The data set is classed as functional, cell-based. The settings on record: KM12, 72 h. In general terms: Tetrazolium assays rely on reduction of a dye to a coloured formazan, in cell work by metabolically active cells.
A further data set deals with MCF7. The data set can be described thus: Antiproliferative activity against human MCF7 cells assessed as inhibition of cell growth incubated for 72 hrs by CCK8 assay. In kind it is functional, cell-based. Particulars: MCF7, 72 h.
In another data set the test system is THLE-2. The data set can be described thus: Antiproliferative activity against human THLE-2 cells assessed as inhibition of cell growth incubated for 72 hrs by CCK8 assay. The data set is classed as functional, cell-based. The settings on record: THLE-2, 72 h.
Data set [2] deals with BaF3. The data set can be described thus: Antiproliferative activity against mouse BaF3 cells harboring TRKA G595R mutant assessed as inhibition of cell growth incubated for 72 hrs by CCK8 assay. The settings on record: BaF3, 72 h. In kind it is functional, cell-based.
Data set [3] relates to BaF3. The data set can be described thus: Antiproliferative activity against mouse BaF3 cells harboring TRKA G667C mutant assessed as inhibition of cell growth incubated for 72 hrs by CCK8 assay. The data set is classed as functional, cell-based. Particulars: BaF3, 72 h.
Data set [4] relates to BaF3. The data set can be described thus: Antiproliferative activity against mouse BaF3 cells harboring TRKA F589L mutant assessed as inhibition of cell growth incubated for 72 hrs by CCK8 assay. The data set is classed as functional, cell-based. Particulars: BaF3, 72 h.
A short description of data set [5]: Toxicity in nude BALB/c mouse xenografted with human KM12 cells assessed as changes in body weight at 40 mg/kg, po qd measured every 3 days for 14 days. The data set is classed as organism-based. The settings on record: in vivo, 336 h, time 14 day.
Data set [6] concerns KM12. Briefly: Antitumor activity against human KM12 cells xenografted in nude BALB/c mouse assessed as tumor growth inhibition at 40 mg/kg, po qd measured every 3 days for 14 days. Particulars: KM12, 336 h, time 14 day, read-out: TGI. In kind it is functional. In general terms: In xenograft studies the graft and the host belong to different species.
A further data set has as its system A549. Briefly: Antiproliferative activity against human A549 cells assessed as inhibition of cell growth incubated for 72 hrs by CCK8 assay. The data set is classed as functional, cell-based. Particulars: A549, 72 h.
Data set [7] can be described thus: Metabolic stability in human liver microsomes assessed as half life at 100 uM incubated for 60 mins under shaking condition in presence of NADPH by LC-MS/MS analysis. In kind it is ADME, Microsome. (In general: Liver microsomes are a subcellular fraction often used to study metabolism.)
Data set [8] is described as follows: Metabolic stability in human microsomes assessed as intrinsic clearance at 100 uM incubated for 60 mins under shaking condition in presence of NADPH by LC-MS/MS analysis. In kind it is ADME, Microsome. Particulars: read-out: CLH.
Data set [9] is described as follows: Metabolic stability in human liver microsomes assessed as compound remaining at 100 uM incubated for 60 mins under shaking condition in presence of NADPH by LC-MS/MS analysis. The data set is classed as ADME, Microsome. The settings on record: read-out: Stability.
Data set [10] can be described thus: Metabolic stability in human liver microsomes assessed as compound remaining at 100 uM incubated for 60 mins under shaking condition in absence of NADPH by LC-MS/MS analysis. The data set is classed as ADME, Microsome. Particulars: read-out: Stability.
Data set [11] has as its target High affinity nerve growth factor receptor (Homo sapiens, UniProt P04629). The data set can be described thus: Inhibition of […] human TRKA (436 to 790 residues) expressed in baculovirus expression system using TK as substrate measured after 30 mins in presence of ATP by HTRF assay.
Data set [12] addresses High affinity nerve growth factor receptor (Homo sapiens, UniProt P04629, G595R). Briefly: Inhibition of TRKA G595R mutant (unknown origin).

SMILES strings stand for the structures.

High affinity nerve growth factor receptor (Homo sapiens, UniProt P04629), sequence (P04629 whole entry, the tested form may be a part): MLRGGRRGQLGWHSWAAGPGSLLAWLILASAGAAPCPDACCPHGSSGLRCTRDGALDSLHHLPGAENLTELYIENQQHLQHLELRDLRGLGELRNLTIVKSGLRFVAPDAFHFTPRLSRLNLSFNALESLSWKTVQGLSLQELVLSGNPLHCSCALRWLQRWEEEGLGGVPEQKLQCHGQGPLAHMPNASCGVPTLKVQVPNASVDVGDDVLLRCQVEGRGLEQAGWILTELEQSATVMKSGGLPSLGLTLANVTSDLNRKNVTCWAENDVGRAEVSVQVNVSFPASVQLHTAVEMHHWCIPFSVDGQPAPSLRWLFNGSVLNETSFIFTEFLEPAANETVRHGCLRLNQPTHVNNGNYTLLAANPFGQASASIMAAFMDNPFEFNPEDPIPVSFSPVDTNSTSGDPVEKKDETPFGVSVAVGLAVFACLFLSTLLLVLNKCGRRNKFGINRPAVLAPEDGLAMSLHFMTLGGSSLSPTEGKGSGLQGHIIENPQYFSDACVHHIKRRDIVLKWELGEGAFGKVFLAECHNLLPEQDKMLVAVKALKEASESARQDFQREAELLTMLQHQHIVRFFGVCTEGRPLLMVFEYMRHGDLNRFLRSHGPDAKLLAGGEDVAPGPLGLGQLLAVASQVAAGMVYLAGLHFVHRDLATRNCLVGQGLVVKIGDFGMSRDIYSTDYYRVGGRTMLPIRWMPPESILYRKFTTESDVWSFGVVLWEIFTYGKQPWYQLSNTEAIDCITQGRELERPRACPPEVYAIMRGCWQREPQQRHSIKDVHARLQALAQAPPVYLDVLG
High affinity nerve growth factor receptor (Homo sapiens, UniProt P04629, G595R), sequence (P04629 33-796 G595R limits assumed): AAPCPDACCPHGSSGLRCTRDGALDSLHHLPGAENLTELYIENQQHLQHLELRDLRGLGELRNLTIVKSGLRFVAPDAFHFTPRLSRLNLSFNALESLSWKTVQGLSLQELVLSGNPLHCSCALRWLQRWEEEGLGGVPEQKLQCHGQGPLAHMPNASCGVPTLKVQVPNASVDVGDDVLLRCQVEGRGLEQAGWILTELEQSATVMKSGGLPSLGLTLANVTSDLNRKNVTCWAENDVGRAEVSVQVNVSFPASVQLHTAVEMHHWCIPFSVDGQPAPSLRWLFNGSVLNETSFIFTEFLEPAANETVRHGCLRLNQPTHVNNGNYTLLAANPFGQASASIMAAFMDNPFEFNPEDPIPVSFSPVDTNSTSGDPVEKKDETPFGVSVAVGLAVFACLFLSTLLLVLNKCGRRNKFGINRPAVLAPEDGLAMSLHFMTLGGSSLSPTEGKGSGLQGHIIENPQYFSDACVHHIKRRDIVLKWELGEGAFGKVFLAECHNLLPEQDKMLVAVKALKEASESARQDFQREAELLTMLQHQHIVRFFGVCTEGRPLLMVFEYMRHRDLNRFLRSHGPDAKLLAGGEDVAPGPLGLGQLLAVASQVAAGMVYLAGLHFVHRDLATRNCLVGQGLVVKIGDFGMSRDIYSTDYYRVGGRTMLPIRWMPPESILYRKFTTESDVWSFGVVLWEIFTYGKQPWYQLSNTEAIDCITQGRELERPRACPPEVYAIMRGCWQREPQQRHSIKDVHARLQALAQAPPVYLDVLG

A word on the IC50: it is the concentration that gives 50% inhibition. Turning to `O=C(Nc1cnn2ccc(N3CCC[C@H]3c3cc(F)ccc3F)nc12)N1CC[C@@H](O)C1`, the IC50 in the data set on KM12 [1] was 7.1 nM; in the data set with MCF7, over 100000 nM; in the data set on THLE-2 it was over 100000 nM; in the data set on BaF3 [2], 2200 nM; in the data set on BaF3 [3] it was 850 nM; with BaF3 [4], 260 nM. Moreover, in the data set with A549, the IC50 was over 100000 nM. Further, the Activity entry in data set [5] is “Non-Toxic”. Further, in the data set with KM12 [6], the inhibition in vivo at 40 mg/kg stood at 78%.

A word on the half-life: it is how long it takes for the measured level to halve. Consider `Cc1cc(Nc2nc(NCc3ccc(F)cc3F)nc3cc(Cl)ccc23)n[nH]1`, for which the half-life at 100 µM in data set [7] came to 31.9 min. In data set [8], the microsomal CLint at 100 µM is 43.5 µL/min/mg. For the same molecule, the remaining at 1 h, 100 µM in data set [9] came out at 28.1%; in data set [10], 99.5%.

In the case of `Cc1cc(Nc2nc(NCc3ccc(C(F)(F)F)cc3)nc3ccccc23)n[nH]1`, in data set [11], the concentration for half-maximal inhibition (IC50) amounted to 1400 nM.

`Cc1cc(Nc2nc(NCc3ccc(F)cc3F)nc3ccc(F)cc23)n[nH]1`: the IC50 in [11] was 44 nM.

Consider `Cc1cc(Nc2nc(NCc3c(F)cccc3F)nc3ccccc23)n[nH]1`, for which the IC50 in data set [11] is 160 nM.

As to `Cc1cc(Nc2nc(NCc3ccc(F)cc3)nc3ccccc23)n[nH]1`, the IC50 in data set [11] was 20 nM.

`Cc1cc(Nc2nc(NCc3ccc(F)cc3F)nc3cc(C(F)(F)F)ccc23)n[nH]1`: the IC50 in data set [11] worked out at 57 nM. Further, in data set [7], the half-life at 100 µM was 50.9 min. In addition, the microsomal CLint at 100 µM in [8] came out at 27.2 µL/min/mg. The remaining at 1 h, 100 µM is 43.4% in data set [9] and 98.3% in data set [10].

In the case of `Fc1ccc(CNc2nc(Nc3cc(-c4ccccc4)[nH]n3)c3ccccc3n2)c(F)c1`, the IC50 in [11] came out at 68 nM.

Consider `Cc1ccc2c(Nc3cc(C)[nH]n3)nc(NCc3ccc(F)cc3F)nc2c1`, for which the half-life at 100 µM in data set [7] was found to be 25.5 min. Besides, the microsomal CLint at 100 µM in data set [8] amounted to 54.3 µL/min/mg. Besides, the remaining at 1 h, 100 µM stood at 20.2% in [9] and 98.1% in [10].

For `Cc1ccc(CNc2nc(Nc3cc(C)[nH]n3)c3ccccc3n2)cc1`, the IC50 in [11] stood at 110 nM.

Regarding `Cc1cc(Nc2nc(NCc3ccc(Br)cc3)nc3ccccc23)n[nH]1`, the IC50 in [11] amounted to 180 nM.

On to `Cc1cc(Nc2nc(N3CCOCC3)nc3ccc(Cl)cc23)n[nH]1`, for which, in data set [11], the IC50 was determined as 350 nM.

Regarding `Fc1ccc(CNc2nc(Nc3cc(C4CC4)[nH]n3)c3ccccc3n2)c(F)c1`, in data set [11], the IC50 worked out at 4.7 nM. Also, in [7], the half-life at 100 µM was determined as 25.8 min. Besides, the microsomal CLint at 100 µM in data set [8] worked out at 53.7 µL/min/mg. Also, the remaining at 1 h, 100 µM was 19.3% in [9] and 104% in data set [10].

Turning to `C[C@@H]1CCc2ncc(F)cc2[C@H]2CCCN2c2ccn3ncc(c3n2)C(=O)N1` [SELITRECTINIB], the IC50 is 2.8 nM with KM12 [1], 18 nM in the data set with BaF3 [2] and 8.2 nM with BaF3 [4].

In the case of `Fc1ccc(CNc2nc(Nc3cc(C4CC4)[nH]n3)c3ccc(C(F)(F)F)cc3n2)c(F)c1`, the IC50 in data set [11] was 17 nM; with KM12 [1], 28 nM; in the data set with MCF7 it was 9100 nM; in the data set with THLE-2 it was over 100000 nM; with BaF3 [2], 1100 nM; in the data set on A549, 19000 nM.

For the molecule `Cc1cc(C(=O)NC(C)(C)C)cc(C#Cc2ccc3c4c(oc3c2)C(C)(C)c2cc(NS(C)(=O)=O)ccc2C4=O)n1`, in data set [12], it took 3000 nM to reach half-maximal inhibition (IC50).

Take `Cc1cc(Nc2nc(NCc3cc(F)ccc3F)nc3ccccc23)n[nH]1`: the IC50 in [11] worked out at 7.5 nM.

Consider `CC(C)Oc1cc(Nc2nc(N[C@@H](C)c3ccc(F)cn3)ncc2Cl)n[nH]1`, for which the IC50 in the data set with KM12 [1] turned out to be 21 nM; in the data set with BaF3 [2], 59 nM; with BaF3 [3] it was 130 nM; in the data set with BaF3 [4], 20 nM.

As to `Cc1cc(Nc2nc(NCc3ccc(Cl)cc3)nc3ccccc23)n[nH]1`, the IC50 in data set [11] was 380 nM.

`Fc1ccc(CNc2nc(Nc3cc(C4CC4)[nH]n3)c3ccc(Br)cc3n2)c(F)c1`: in [11], the 50% inhibitory concentration (IC50) was determined as 150 nM.
